Measurements: patent US20250289780A1, “N,N'-DIPHENYL-4,4'-BIPHENYLDICARBOXAMIDE ANALOGS AND THEIR USE IN CANCER TREATMENT” (Board of Regents, The University of Texas System, priority 2024, published 2025)
“Also recorded” adds a separate entry of the source.

Legend:
Bcl-2 = Bcl-2 (Homo sapiens, UniProt P10415); test: Fluorescence polarization (FP) binding assay, Bcl-2
Method: (§1) FIGS. 3A-3B show binding affinity to Bcl-xL, Bcl-2 and Mcl-1 determined by FP assay. FIG. 3A: compounds 1-9 mimicking BH3 peptides of proapoptotic proteins (scaffold I). FIG. 3B: Bim-mimicking compounds 10-16 derived from scaffolds II-VIII.
(§2) Their binding affinities on Bcl-xL, Bcl-2, and Mcl-1 were determined by fluorescence polarization (FP) assays (FIG. 3A). […] The role of carboxylic acids at both ends of compound 1 was also studied.

Bcl-xL = Bcl-xL (Homo sapiens, UniProt Q07817); test: Fluorescence polarization (FP) binding assay, Bcl-xL
Method: as §1, §2

Mcl-1 = Mcl-1 (Homo sapiens, UniProt Q07820); test: Fluorescence polarization (FP) binding assay, Mcl-1
Method: as §1, §2

[1] = target: T1, interaction of Bak with Mcl-1 (Homo sapiens, UniProt Q07820); test: Co-immunoprecipitation in PC3 cells, Bak/Mcl-1; type: cell-based; settings: 10 μM, 24 h, immunoprecipitation and western blotting
T1 construct: endogenous in cells; host or cells: PC3 cells
Method: (§3) FIGS. 5A-5F show cellular activity of mimetics 1, 14, and 23. FIG. 5A: effect of mimetics on the interaction between Bak and antiapoptotic proteins. PC3 cells were incubated in the presence or absence of mimetics (10 μM) for 24 h and cell lysates were analyzed by immunoprecipitation followed by western blotting. FIG. 5B: mitochondrial membrane depolarization by mimetics. PC3 cells that were treated with mimetics, ABT737 or MIM1 were stained with JC-1 dye and analyzed for change in red to green fluorescence intensity ratio of JC-1 dye. FIG. 5C: activation of caspase-3/-9 by mimetics. PC3 cells were treated with different concentrations of mimetics, ABT737, and MIM1 for 24 h and activities of caspase-3/-9 were measured using caspase-specific colorimetric assay kits. FIG. 5D: downregulation of Mcl-1 by siRNA. PC3 cells were transfected with Mcl-1 siRNA (30 μmol) or control siRNA (30 μmol) for 24 h and cell lysates were analyzed by western blotting. FIG. 5E: effect of Mcl-1 knockdown on mimetics-induced caspase activation. Same as for C except for the use of Mcl-1 knockdown PC3 cells. FIG. 5F: effect of Mcl-1 knockdown on mimetics-induced cell growth. PC3 cells were treated with mimetics (10 μM) or MIM1 (10 μM) for 24 h and cell viability was determined using MTT assay. […]

DU145 cells = test: MTT anti-proliferative assay, DU145; type: cell-based; settings: Homo sapiens, DU-145, read-out: IC50, cell growth
Method: (§4) These compounds were examined for their capabilities of inducing apoptosis. When effectors are released from anti-apoptotic proteins, they form pores on the outer mitochondrial membrane, leading to mitochondrial outer membrane permeabilization (MOMP) and cytochrome c release which promote caspase activation. The formation of pores on the outer mitochondrial membrane and the resulting change in mitochondrial membrane potential were determined by JC-1 staining. […] The anti-proliferative activity was also evaluated using MTT assay in prostate cancer cells.

[2] = target: T2, interaction of Bak with Bcl-2 (Homo sapiens, UniProt P10415); test: Co-immunoprecipitation in PC3 cells, Bak/Bcl-2; type: cell-based; settings: 10 μM, 24 h, immunoprecipitation and western blotting
T2 construct: endogenous in cells; host or cells: PC3 cells
Method: as §3

LNCaP cells = test: MTT anti-proliferative assay, LNCaP; type: cell-based; settings: Homo sapiens, read-out: IC50, cell growth
Method: as §4

PC3 cells [3] = test: MTT anti-proliferative assay, PC3; type: cell-based; settings: for cell growth inhibition: 10 μM, 24 h, MTT
Method: (§5) FIGS. 5A-5F show cellular activity of mimetics 1, 14, and 23. FIG. 5A: effect of mimetics on the interaction between Bak and antiapoptotic proteins. PC3 cells were incubated in the presence or absence of mimetics (10 μM) for 24 h and cell lysates were analyzed by immunoprecipitation followed by western blotting. FIG. 5B: mitochondrial membrane depolarization by mimetics. PC3 cells that were treated with mimetics, ABT737 or MIM1 were stained with JC-1 dye and analyzed for change in red to green fluorescence intensity ratio of JC-1 dye. FIG. 5C: activation of caspase-3/-9 by mimetics. PC3 cells were treated with different concentrations of mimetics, ABT737, and MIM1 for 24 h and activities of caspase-3/-9 were measured using caspase-specific colorimetric assay kits. FIG. 5D: downregulation of Mcl-1 by siRNA. PC3 cells were transfected with Mcl-1 siRNA (30 μmol) or control siRNA (30 μmol) for 24 h and cell lysates were analyzed by western blotting. FIG. 5E: effect of Mcl-1 knockdown on mimetics-induced caspase activation. Same as for C except for the use of Mcl-1 knockdown PC3 cells. FIG. 5F: effect of Mcl-1 knockdown on mimetics-induced cell growth. PC3 cells were treated with mimetics (10 μM) or MIM1 (10 μM) for 24 h and cell viability was determined using MTT assay.
as §4
(§6) Its specificity to Mcl-1 on prostate cancer cells with Mcl-1 silenced by siRNA (FIG. 5D) was further investigated. Compound 23 induced up to 3-fold increase in caspase-3/-9 activity in untransfected and control-transfected PC3 cells. Knockdown of Mcl-1, however, decreased the M161-induced caspase activity to the basal level (FIG. 5E). In MTT assay, 23 inhibited cell growth by 64% and 62% in untransfected and control-transfected PC3 cells, respectively.

[4] = target: T3, interaction of Bak with Bcl-xL (Homo sapiens, UniProt Q07817); test: Co-immunoprecipitation in PC3 cells, Bak/Bcl-xL; type: cell-based; settings: 10 μM, 24 h, immunoprecipitation and western blotting
T3 construct: endogenous in cells; host or cells: PC3 cells
Method: as §3

PC3 cells [5] = test: Mitochondrial membrane depolarization, JC-1 staining; type: cell-based
Method: FIGS. 5A-5F show cellular activity of mimetics 1, 14, and 23. FIG. 5A: effect of mimetics on the interaction between Bak and antiapoptotic proteins. PC3 cells were incubated in the presence or absence of mimetics (10 μM) for 24 h and cell lysates were analyzed by immunoprecipitation followed by western blotting. FIG. 5B: mitochondrial membrane depolarization by mimetics. PC3 cells that were treated with mimetics, ABT737 or MIM1 were stained with JC-1 dye and analyzed for change in red to green fluorescence intensity ratio of JC-1 dye. FIG. 5C: activation of caspase-3/-9 by mimetics. PC3 cells were treated with different concentrations of mimetics, ABT737, and MIM1 for 24 h and activities of caspase-3/-9 were measured using caspase-specific colorimetric assay kits. FIG. 5D: downregulation of Mcl-1 by siRNA. PC3 cells were transfected with Mcl-1 siRNA (30 μmol) or control siRNA (30 μmol) for 24 h and cell lysates were analyzed by western blotting. […] PC3 cells were treated with mimetics (10 μM) or MIM1 (10 μM) for 24 h and cell viability was determined using MTT assay.
These compounds were examined for their capabilities of inducing apoptosis. […] The formation of pores on the outer mitochondrial membrane and the resulting change in mitochondrial membrane potential were determined by JC-1 staining. […] The anti-proliferative activity was also evaluated using MTT assay in prostate cancer cells.

caspase-3/-9 = test: Caspase-3/-9 colorimetric activity assay in PC3 cells; type: cell-based; settings: for caspase-9/-3 activity (in words): PC3 cells, different concentrations, 24 h
Method: as §5, §4, §6

Chain of Mcl-1 (Q07820 whole entry): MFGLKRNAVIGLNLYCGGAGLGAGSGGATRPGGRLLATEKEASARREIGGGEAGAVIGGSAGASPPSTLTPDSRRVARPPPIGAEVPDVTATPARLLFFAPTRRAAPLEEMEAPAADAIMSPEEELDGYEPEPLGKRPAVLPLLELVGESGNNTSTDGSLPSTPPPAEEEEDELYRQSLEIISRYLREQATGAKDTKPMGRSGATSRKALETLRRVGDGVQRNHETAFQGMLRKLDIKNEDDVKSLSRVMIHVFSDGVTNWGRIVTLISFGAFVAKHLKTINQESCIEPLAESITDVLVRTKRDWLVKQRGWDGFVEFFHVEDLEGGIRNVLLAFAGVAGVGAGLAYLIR
Chain of Bcl-2 (P10415 whole entry): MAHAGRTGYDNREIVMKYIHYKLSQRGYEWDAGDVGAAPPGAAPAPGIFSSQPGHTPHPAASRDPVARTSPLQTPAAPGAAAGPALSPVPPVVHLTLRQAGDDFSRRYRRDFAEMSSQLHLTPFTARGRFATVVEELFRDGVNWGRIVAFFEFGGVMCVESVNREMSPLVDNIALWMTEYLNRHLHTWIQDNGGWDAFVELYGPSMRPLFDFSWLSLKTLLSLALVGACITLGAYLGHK
Chain of Bcl-xL (Q07817 whole entry): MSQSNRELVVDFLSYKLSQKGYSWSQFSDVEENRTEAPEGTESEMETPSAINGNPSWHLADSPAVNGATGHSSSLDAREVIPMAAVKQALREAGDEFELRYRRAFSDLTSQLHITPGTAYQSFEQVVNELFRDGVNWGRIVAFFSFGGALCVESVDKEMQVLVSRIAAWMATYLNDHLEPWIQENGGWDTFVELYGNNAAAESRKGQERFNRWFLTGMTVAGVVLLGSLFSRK
T1 sequence (Q07820 whole entry): as the sequence (Q07820 whole entry) above
T2 sequence (P10415 whole entry): as the sequence (P10415 whole entry) above
T3 sequence (Q07817 whole entry): as the sequence (Q07817 whole entry) above

binding affinity to Bcl-2 (in words) (Bcl-2)	binding affinity to Bcl-xL (in words) (Bcl-xL)	binding affinity to Mcl-1 (in words) (Mcl-1)	SMILES	also measured
significantly lost affinity	significantly lost affinity	significantly lost affinity	CCC(C)COc1cc(-c2ccc(C(=O)Nc3ccc(C(=O)O)cc3OC(C)CC)cc2OCCC(C)C)ccc1C(=O)Nc1ccc(C(=O)O)cc1OCc1ccccc1 (stereo not shown) [Compound 12]	–
–	–	–	CCC(C)COc1cc(-c2ccc(C(=O)Nc3ccc(C(=O)O)cc3OC(C)CC)c(OCCC(C)C)c2)ccc1C(=O)Nc1ccc(C(=O)O)cc1OCc1ccccc1 (stereo not shown) [Compound 1, 3-(Benzyloxy)-4-(4′-((2-(sec-butoxy)-4-carboxyphenyl)carbamoyl)-3′-(isopentyloxy)-3-(2-methylbutoxy)-[1,1′-biphenyl]-4-carboxamido)benzoic acid]	IC50 (Bcl-2): 0.14 to 0.23 µM; disruption of the interaction of Bak with Mcl-1 [1]: disrupted the interaction; IC50 (Bcl-xL): 0.14 to 0.23 µM; IC50 (DU145 cells): 2.87 to 9.67 µM; disruption of the interaction of Bak with Bcl-2 [2]: disrupted the interaction; IC50 (LNCaP cells): 2.87 to 9.67 µM; IC50 (PC3 cells [3]; Homo sapiens, PC-3, PC3, MTT assay, read-out: IC50, cell growth): 2.87 to 9.67 µM; disruption of the interaction of Bak with Bcl-xL [4]: disrupted the interaction; red to green fluorescence intensity ratio of JC-1 dye (PC3 cells [5]): significantly reduced; IC50 (Mcl-1): 0.14 to 0.23 µM; caspase-9/-3 activity (in words) (caspase-3/-9): induced caspase-9/-3 activity in a dose-dependent manner
complete loss in binding affinities	complete loss in binding affinities	complete loss in binding affinities	CCC(C)COc1cc(-c2ccc(C(=O)Nc3ccc(C(=O)O)cc3OC(C)CC)c(OCCC(C)C)c2)ccc1C(=O)Nc1ccccc1OCc1ccccc1 (stereo not shown) [Compound 9]	–
maintaining affinity	lost affinity	maintaining affinity	CCC(C)COc1cc(-c2ccc(C(=O)Nc3ccc(C(=O)O)c(OC(C)CC)c3)c(OCCC(C)C)c2)ccc1C(=O)Nc1ccc(C(=O)O)cc1OCc1ccccc1 (stereo not shown) [Compound 10]	–
did not bind	did not bind	did not bind	CCCCCOc1cc(-c2ccc(C(=O)Nc3ccc(C(=O)O)cc3OCc3ccc(F)cc3)c(OCCC(C)C)c2)ccc1C(=O)Nc1ccc(C(=O)O)cc1OCc1ccccc1 [Compound 6]	–
affinity only for Bcl-2	–	–	CCOc1cc(C(=O)O)ccc1NC(=O)c1ccc(-c2ccc(C(=O)Nc3ccc(C(=O)O)cc3OCC(C)C)c(OCCc3ccccc3)c2)cc1OCCC(C)C [Compound 7]	–
no inhibition	no inhibition	no inhibition	CCCCOc1cc(C(=O)O)ccc1NC(=O)c1ccc(-c2ccc(C(=O)Nc3ccc(C(=O)O)cc3OC(C)CC)c(OCCC(C)C)c2)cc1OCC(C)C (stereo not shown) [Compound 3]	–
high affinity	low affinity	low affinity	CCCCCOc1cc(-c2ccc(C(=O)Nc3ccc(C(=O)O)cc3OC(C)CC)c(OCCC(C)C)c2)ccc1C(=O)Nc1ccc(C(=O)O)cc1OCC(C)C (stereo not shown) [Compound 2]	–
selectivity for Bcl-xL and Bcl-2	selectivity for Bcl-xL and Bcl-2	–	CCC(C)COc1cc(-c2ccc(C(=O)Nc3ccc(C(=O)O)c(OC(C)CC)c3)c(OCCC(C)C)c2)ccc1C(=O)Nc1ccc(C(=O)O)c(OCc2ccccc2)c1 (stereo not shown) [Compound 11]	–
–	–	selectively inhibited only Mcl-1	CCC(C)Oc1cc(C(=O)O)ccc1NC(=O)c1ccc(-c2ccc(C(=O)Nc3ccc(C(=O)O)cc3OC(C)CC)c(OC(C)C)c2)cc1OCCC(C)C (stereo not shown) [Compound 23]	disruption of the interaction of Bak with Mcl-1 [1]: selectively inhibited Mcl-1 over Bcl-xL and Bcl-2; cell growth inhibition (PC3 cells [3]; Mcl-1 knockdown PC3 cells): 18%; cell growth inhibition (PC3 cells [3]; control-transfected PC3 cells): 62%; cell growth inhibition (PC3 cells [3]; untransfected PC3 cells): 64%; red to green fluorescence intensity ratio of JC-1 dye (PC3 cells [5]): significantly reduced; IC50 (Mcl-1): 0.16 µM; induced caspase activity (in words) (caspase-3/-9; Mcl-1 knockdown (siRNA) PC3 cells): basal level; caspase-9/-3 activity (in words) (caspase-3/-9): induced caspase-9/-3 activity in a dose-dependent manner; increase in caspase-3/-9 activity (caspase-3/-9; control-transfected PC3 cells): up to 3 fold; increase in caspase-3/-9 activity (caspase-3/-9; untransfected PC3 cells): up to 3 fold
–	negligible binding	negligible binding	CCC(C)Oc1cc(C(=O)O)ccc1NC(=O)c1ccc(-c2ccc(C(=O)Nc3ccc(C(=O)O)cc3OC(C)CC)c(OC(C)CC)c2)cc1OCCC(C)C (stereo not shown) [Compound 20]	IC50 (Bcl-2): 0.34 µM
–	selective affinity only to Bcl-xL	–	CCC(C)COc1cc(-c2ccc(C(=O)Nc3ccc(C(=O)O)cc3OC(C)CC)c(OC(C)CC)c2)ccc1C(=O)Nc1ccc(C(=O)O)cc1OCc1ccccc1 (stereo not shown) [Compound 22]	IC50 (Bcl-xL): 0.65 µM

SMILES	binding affinity to Bcl-2 (in words) (Bcl-2)	binding affinity to Bcl-xL (in words) (Bcl-xL)	binding affinity to Mcl-1 (in words) (Mcl-1)	also measured
CCC(C)COc1cc(-c2ccc(C(=O)Nc3ccc(C(=O)O)cc3OCC(C)C)c(OCCC(C)C)c2)ccc1C(=O)Nc1ccc(C(=O)O)cc1OCC(C)C (stereo not shown) [Compound 4]	very selective for inhibiting Bcl-2 over Bcl-xL and Mcl-1	–	–	–
CCC(C)COc1cc(-c2ccc(C(=O)Nc3ccc(C(=O)O)cc3OC(C)CC)cc2OCCC(C)C)ccc1C(=O)Nc1ccc(C(=O)O)c(OCc2ccccc2)c1 (stereo not shown) [Compound 13]	substantially increased its affinity to Bcl-xL and Bcl-2 compared to Mcl-1	substantially increased its affinity to Bcl-xL and Bcl-2 compared to Mcl-1	–	–
CCC(C)COc1cc(-c2ccc(C(=O)Nc3ccc(C(=O)O)cc3OC(C)C)c(OCCC(C)C)c2)ccc1C(=O)Nc1ccc(C(=O)O)cc1OC(C)CC (stereo not shown) [Compound 5]	–	negligible affinity; also recorded: not to Bcl-xL	–	–
